As for `Clc1nccc2[nH]cnc12`, the melting point lay within 100 to 102 °C.

`N=C(N)NC1=NC(=O)C(=Cc2cccc(-c3cc(F)c(O)c(C45CC6CC(CC(C6)C4)C5)c3)c2)S1` returned a melting point of 288 to 290 °C.

`CC(N)C(=O)Nc1cc(OCC(F)(F)F)ccc1-c1ccccn1` (stereo not given) returned a melting point of 85 to 86 °C.

The compound `Cc1cc(Cl)ncc1C(=O)Nc1ccc2c(c1)-c1c(c(C(N)=O)nn1-c1ccc(F)cc1)CC2` had a melting point of 280 to 284 °C.

`CC(C)(C)c1cc(C2=NC(=S)N=N2)cc(C(C)(C)C)c1O` came in with a melting point above 250 °C.

The compound `COC(=O)COc1ccc(C=Cc2nc(-c3ccccc3)c(-c3ccccc3)o2)cc1` came in with a melting point of 122 to 123 °C.

`CC(=O)OC1CSC(Oc2cccnc2-c2ccoc2)C(OC(C)=O)C1OC(C)=O` (stereo not given) yielded a melting point of 185 °C.

`COC(=O)C1=C(C)NC(C)=C(C(=O)OCCN2CCCN(C(c3ccccc3)c3ccccc3)CC2)C1c1cccc([N+](=O)[O-])c1` (stereo not given) returned a melting point of 60 to 63 °C.

Take `Cc1ccccc1NC(=O)c1c(Cl)cccc1Cl`: the melting point stood at 182 °C.

As to `Clc1nnccc1-c1c(-c2ccccc2)nn2ccccc12`, the melting point lay in the range of 208 to 210 °C.

As to `N#CCc1cccc(CBr)c1[N+](=O)[O-]`, the melting point fell in the range of 71 to 73 °C.

`Nc1cc(C=O)nc(C2CCC2)c1F`: the melting point fell in the range of 134 to 135 °C.

Take `CCCC(=O)Nc1nn(COCC[Si](C)(C)C)c2cc(-c3ccc(SC)cc3)ccc12`: the melting point came to 225 °C.

`Cc1nc([C@@H](Cc2c[nH]c3ccccc23)NC(=O)OC(C)(C)C)oc1C` came in with a melting point of 138 to 140 °C.

Take `Nc1ccc2c(n1)CCO2`: the melting point was in the range of 129 to 131 °C.

On to `O=C(O)[C@H](Cc1ccccc1)Nc1c(NC(c2ccccc2)c2ccccc2)c(=O)c1=O`, for which the melting point is 187 to 188 °C.

Take `CC(=O)NCCC1CCc2ccn3nccc3c21` (stereo not given): the melting point fell in the range of 100 to 101 °C.

`O=C(O)COc1cc(Br)c2oc3cccc(F)c3c(=O)c2c1` displayed a melting point of 220 to 223 °C.

`c1csc(N=C2SC[C@@H]3Cc4ccccc4CN23)c1` came in with a melting point of 112 °C.

For `CCN(CC)c1ccc(-c2cc(-c3ccc(C(=O)O)cc3)ccc2OCCCO)cc1C`, the melting point stood at 208 °C.

For `CCCCNC(=O)NCCC`, the melting point lay in the range of 70 to 72 °C.

`O=C(NC(=O)c1c(F)cccc1F)Nc1cccc(S(=O)(=O)C(F)(F)C(F)Cl)c1` (stereo not given) showed a melting point of 192 to 194 °C.

`COc1ccc2cc(-c3cnc(-c4cn(Cc5ccccc5)c5ccccc45)o3)ccc2c1` displayed a melting point of 198 to 199 °C.

As to `O=C(O)c1cn(C2CC2)c2nc(-c3cc4c(s3)CCC/C4=N\O)c(F)cc2c1=O`, the melting point was above 300 °C.

As to `COc1ccc2c(Cl)nc(Cl)nc2c1OC`, the melting point was in the range of 153 to 155 °C.

With `ClCc1nc2sc3c(c2c(-c2ccc(Cl)cc2)c1Cl)CCN(Cc1ccccc1)C3`, the melting point lay within 204 to 205 °C.

On to `NC(=O)c1cc([N+](=O)[O-])cnc1C(Br)Br`, for which the melting point was 156 to 158 °C.

In turn, `OCC1OC(n2cnc3c(NCc4cccc(I)c4)ncnc32)C(O)C1O` (stereo not given) had a melting point of 172 °C.

Compound `CC1(C)COCC(=O)N1NCc1ccccc1` registered a melting point of 76 to 77 °C.

Compound `COc1cc(S(=O)(=O)c2ccncc2)ccc1N` returned a melting point of 163 to 165 °C.

In the case of `CC(=O)Nc1ccc(Oc2ccc(S(C)=O)cc2)cc1` (stereo not given), the melting point lay in the range of 159 to 161 °C.

The compound `CC(C)(C)C(=O)c1ccc(C(Br)Br)cc1` returned a melting point of 65 to 68 °C.

As to `CC(C)(C)NS(=O)(=O)c1cccs1`, the melting point was in the range of 80 to 82 °C.

`CN1CCC(=Cc2cc(C(C)(C)C)c(O)c(C(C)(C)C)c2)C1=O`: the melting point came to 185 °C.

On to `CCS(=O)(=O)c1nc2c(cc1F)c(=O)c(C(=O)O)cn2C1CC1`, for which the melting point was 240 to 242 °C.

Compound `COC(=O)c1cc(-n2cnc(Br)c2)c(C(F)(F)F)cc1N` registered a melting point of 163 to 165 °C.

Consider `Cc1cnc2nc(S(=O)(=O)Cl)nn2c1`, for which the melting point was in the range of 106 to 108 °C.

Turning to `CCOC(=O)C(C)Sc1ncnc2c(O)n(C)nc12` (stereo not given), the melting point was 127 to 131 °C.

`CCCCCCc1ccc2c(c1)[nH]c1cc(COC(c3ccccc3)(c3ccccc3)c3ccccc3)ccc12` came in with a melting point of 155 to 156 °C.

Compound `O=C(O)c1ccc2c(c1)Cc1cccnc1O2` came in with a melting point of 285 to 286 °C.

In the case of `Brc1cncc2nc(SCc3ccccc3)nn12`, the melting point fell in the range of 94 to 95 °C.

`Cc1cc(C)c(C(CO)c2ccc(Br)cc2)c(O)c1C` (stereo not given) gave a melting point of 114 to 115 °C.

`O=C(O)c1cn(C2CC2)c2cc(N3CCN(C(=O)OCCn4cccn4)CC3)c(F)cc2c1=O` had a melting point of 205 to 208 °C.

For `O=C(Nc1nc2cnccc2s1)N1CCCC1`, the melting point lay within 218 to 220 °C.

`COc1nc2cc(Cl)ccc2c(=O)c2sccc12` came in with a melting point of 195 to 197 °C.

In turn, `CC(C)(C)c1csc(N)c1C(N)=O` had a melting point of 145 °C.

`Nc1cc2nc(-c3ccccc3)nn2cc1F`: the melting point is above 250 °C.

`CC(C)c1ccc2c(c1)OC1(O)c3ccccc3C(=O)C21O` (stereo not given) showed a melting point of 195 to 198 °C.

Turning to `O=C1CC2CC(C1)CN(Cc1ccccc1)C2`, the melting point was 89 °C.

Take `CN(C)c1ccc(/C=C/c2c(F)cc(F)cc2F)cc1`: the melting point fell in the range of 127 to 128 °C.

Take `CCCCc1nc(S(=O)(=O)c2ccccc2)c(C(=O)O)n1Cc1ccc(-c2ccccc2C(=O)O)cc1`: the melting point stood at 140 °C.

With `N#CC1Cc2ccc(N)cc2C1` (stereo not given), the melting point was 73 to 76 °C.

`O=c1c2c(CCc3ccccc3[N+](=O)[O-])n[nH]c2c2cccnc2n1-c1ccccc1` registered a melting point of 333 to 335 °C.

In the case of `CCOC(=O)C1(C(=O)OCC)NC(=O)CC1c1ccccc1` (stereo not given), the melting point was 97 to 99 °C.

As to `CCOC(=O)CN1C(=O)COc2cc(F)c([N+](=O)[O-])cc21`, the melting point fell in the range of 79 to 81 °C.

`CCOC(=O)C1=C(N)NC2=C(C(=O)CCC2)C1c1cccc(Br)c1` (stereo not given) showed a melting point of 255 °C.

With `Cc1ccc(S(=O)(=O)OCC2COc3ccc4nc(C)c(C)nc4c3O2)cc1` (stereo not given), the melting point fell in the range of 153 to 155 °C.

Consider `CC(=O)SCC(Cc1ccc(-c2ccccc2)cc1)C(=O)N[C@@H](CSCc1ccc(C)cc1)C(=O)O` (stereo not given in full), for which the melting point lay in the range of 131 to 135 °C.

On to `Cc1cc2cn[nH]c2c(C(=O)NC(C)C)c1NC(=O)c1cc(Br)nn1-c1ncccc1Cl`, for which the melting point lay within 163 to 166 °C.

`O=C(O)Cn1c(=O)c(=O)[nH]c2cc([N+](=O)[O-])c(-n3ccc(CN4CCN(C(c5ccccc5)c5ccccc5)CC4)c3)cc21` came in with a melting point above 245 °C.

As for `CC(=O)Nc1ccc(C23CC2C(=O)N(C)C3=O)cc1` (stereo not given), the melting point lay within 183 to 184 °C.

`Cc1ccc2nc(CN3CCN(c4ccc(Cl)cc4C#N)CC3)cn2c1`: the melting point lay within 135 to 136 °C.

In the case of `C=CCOc1ccccc1OCC(O)CNC1CCC(N2CCNC2=O)CC1` (stereo not given), the melting point lay within 154 to 155 °C.

Compound `Cc1nc(OC(C)C(=O)O)nn1-c1cccc(Cl)c1` (stereo not given) registered a melting point of 101 to 103 °C.

`O=C1C[C@@H](Nc2ncnc3c2ncn3[C@@H]2O[C@H](CO)[C@@H](O)[C@H]2O)C(=O)N1`: the melting point lay within 167 to 169 °C.

Regarding `CN(C)C1(c2ccccc2)CCC(=O)CC1`, the melting point lay in the range of 104 to 108 °C.

With `CCOC(=O)Cc1ccc(NCCNC(=O)C2Cc3ccccc3N2S(=O)(=O)c2ccc(-c3cc(C(F)(F)F)ccc3Cl)cc2)cc1` (stereo not given), the melting point lay within 55 to 63 °C.

Regarding `O=C(c1cccnc1)C(O)c1ccccc1Br` (stereo not given), the melting point lay in the range of 105 to 108 °C.

In the case of `C=CC1CN(c2ncc(C(=O)N(C)c3cccc(C(F)(F)F)c3)c(N)n2)C(=O)N1` (stereo not given), the melting point was 203 to 204 °C.

In turn, `O=C(/C=C/c1cccc(S(=O)(=O)N2CCN(c3cccc(C(F)(F)F)c3)CC2)c1)NO` gave a melting point of 173 °C.

As for `c1ccc(C(CC2=NCCN2)c2ccncc2)cc1` (stereo not given), the melting point was in the range of 105 to 107 °C.

The compound `Cc1cc(C(=O)OC2CC(C)(C)NC(C)(C)C2)c(C)o1` displayed a melting point of 59 to 61 °C.

`O=C1C[C@@H](C(=O)OCc2ccccc2)N(C(=O)OCc2ccccc2)C1` came in with a melting point of 55 to 56 °C.

Turning to `CCC1CC2C3CCC4=CC(=O)CCC4=C3CCC2(C)C1O` (stereo not given), the melting point was in the range of 124 to 126 °C.

The compound `Cc1ccc(C2c3c(C)c(N4CCN(c5ccc(C)cc5)CC4)c(C)c(C)c3OC2(C)C)cc1` (stereo not given) showed a melting point of 157 to 158 °C.

`Cc1cccc2c1n(CCS(C)(=O)=O)c(=O)n2C(=O)N[C@H](C(=O)N(C)C)C(C)(C)C` showed a melting point of 191 °C.

Turning to `O=C1Cc2c(cc3ccccc3c2Br)C(c2ccccc2Cl)N1` (stereo not given), the melting point was 256 to 257 °C.

Regarding `Cn1cc(O)c(=O)c2ccc(F)cc21`, the melting point lay within 283 to 285 °C.

Compound `CN1C(=O)CC[C@]2(C)c3ccc(-c4cc(Cl)cc(Cl)c4)cc3CC[C@@H]12` showed a melting point of 172 °C.

`CCC(=O)OCC(CCn1cnc2cnc(N)nc21)COC(=O)CC`: the melting point fell in the range of 77.5 to 79 °C.

The compound `CN(C)CCCn1c(-c2ccccc2)cc2c1CCS(=O)(=O)C2` yielded a melting point of 123 to 125 °C.

`CCOC(=O)C(=Cc1cccn2cc(-c3ccccc3)nc12)N=[N+]=[N-]` came in with a melting point of 136 to 138 °C.

In turn, `CC(=O)N[C@@H]1[C@@H](CC2CO2)CC(C(=O)O)=C[C@H]1OC(C)C` (stereo not given in full) registered a melting point of 156 to 157 °C.

With `N#Cc1ccc(C2C(=O)N(CC3CC3)Cc3cncn32)cc1` (stereo not given), the melting point was 146 to 147 °C.

For `CCOP(=O)(CC(=O)O)CC(Cc1ccccc1)NS(=O)(=O)c1ccc(C)cc1` (stereo not given), the melting point fell in the range of 110 to 112 °C.

`C=CCNC(=O)N=C(O)c1cc(C(=O)O)ccc1C(=O)O` registered a melting point of 230 to 232 °C.

For the compound `O=C(O)Cc1ccc(Cn2cc(C(=O)C(=O)NC3=CC(=O)OC3)c3ccccc32)cc1`, the melting point is above 270 °C.

`COc1cc(C)c2c(c1)C(C(=O)O)=CCC2` registered a melting point of 149 to 150 °C.

For `Fc1ccc2sccc2c1`, the melting point is 21 to 22 °C.

In turn, `NC(=O)c1ccc2c(c1)S(=O)(=O)c1ccccc1C2=O` yielded a melting point of 282 to 283 °C.

One may read the melting point as the temperature of the solid-liquid transition.

The values above are taken from a melting point compilation (Tetko et al.; mined from patent text by program, amines drawn as free bases though some values may be those of a salt).
